Assay results taken from the supplement of paper PMC10627819.

Tests used:
Assay in all cases: fitness (endpoint OD595 vs no drug) (fraction); higher = more growth
S. aureus DSM 20231 = system: S. aureus DSM 20231
Summary of the method: (§1)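 Fitness was measured as bacterial growth in 384-well plates inoculated at OD595 0.01 (30 µl, or 55 µl for S. pneumoniae). Media were TSB, LB Lennox or CY, at 37 °C. OD595 was read every 30 min for 14 h and background-subtracted against the first reading. Fitness is OD595 at the transition into stationary phase divided by the robust mean of no-drug control wells, capped at 1.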

S. pneumoniae D39V = system: S. pneumoniae D39V
Summary of the method: as §1

S. aureus Newman = system: S. aureus Newman
Summary of the method: as §1
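Note: OD595 on entry to stationary phase over no-drug wells; at most 1.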

CCC[C@@H]1C[C@@H](C(=O)N[C@@H]([C@H]2O[C@H](SC)[C@H](O)[C@@H](O)[C@H]2O)[C@@H](C)O)N(C)C1 [Lincomycin] + CO[C@@]12[C@H](COC(N)=O)C3=C(C(=O)C(C)=C(N)C3=O)N1C[C@@H]1N[C@@H]12 [Mitomycin C]
Settings | fitness
S. aureus DSM 20231, first compound 0.1 µg/mL, partner 0.0156 µg/mL | 0.645
S. aureus DSM 20231, first compound 0.1 µg/mL, partner 0.0312 µg/mL | 0.651
S. aureus DSM 20231, first compound 0.1 µg/mL, partner 0.0625 µg/mL | 0.502
S. aureus DSM 20231, first compound 0.2 µg/mL, partner 0.0156 µg/mL | 0.613
S. aureus DSM 20231, first compound 0.2 µg/mL, partner 0.0312 µg/mL | 0.567
S. aureus DSM 20231, first compound 0.2 µg/mL, partner 0.0625 µg/mL | 0.383
S. aureus DSM 20231, first compound 0.4 µg/mL, partner 0.0156 µg/mL | 0.217
S. aureus DSM 20231, first compound 0.4 µg/mL, partner 0.0312 µg/mL | 0.199
S. aureus DSM 20231, first compound 0.4 µg/mL, partner 0.0625 µg/mL | 0.108
S. pneumoniae D39V, first compound 0.2 µg/mL, partner 0.001075 µg/mL | 0.679
S. pneumoniae D39V, first compound 0.2 µg/mL, partner 0.00215 µg/mL | 0.69
S. pneumoniae D39V, first compound 0.2 µg/mL, partner 0.0043 µg/mL | 0.603
S. pneumoniae D39V, first compound 0.215 µg/mL, partner 0.002 µg/mL | 0.709
S. pneumoniae D39V, first compound 0.215 µg/mL, partner 0.004 µg/mL | 0.73
S. pneumoniae D39V, first compound 0.215 µg/mL, partner 0.008 µg/mL | 0.657
S. pneumoniae D39V, first compound 0.4 µg/mL, partner 0.001075 µg/mL | 0.605
S. pneumoniae D39V, first compound 0.4 µg/mL, partner 0.00215 µg/mL | 0.609
S. pneumoniae D39V, first compound 0.4 µg/mL, partner 0.0043 µg/mL | 0.497
S. pneumoniae D39V, first compound 0.43 µg/mL, partner 0.002 µg/mL | 0.615
S. pneumoniae D39V, first compound 0.43 µg/mL, partner 0.004 µg/mL | 0.614
S. pneumoniae D39V, first compound 0.43 µg/mL, partner 0.008 µg/mL | 0.514
S. pneumoniae D39V, first compound 0.8 µg/mL, partner 0.001075 µg/mL | 0.221
S. pneumoniae D39V, first compound 0.8 µg/mL, partner 0.00215 µg/mL | 0.218
S. pneumoniae D39V, first compound 0.8 µg/mL, partner 0.0043 µg/mL | 0.131
S. pneumoniae D39V, first compound 0.86 µg/mL, partner 0.002 µg/mL | 0.246
S. pneumoniae D39V, first compound 0.86 µg/mL, partner 0.004 µg/mL | 0.258
S. pneumoniae D39V, first compound 0.86 µg/mL, partner 0.008 µg/mL | 0.266

COc1c(N2C[C@@H]3CCCN[C@@H]3C2)c(F)cc2c(=O)c(C(=O)O)cn(C3CC3)c12 [Moxifloxacin] + CC1(C)S[C@@H]2[C@H](NC(=O)Cc3ccccc3)C(=O)N2[C@H]1C(=O)O [Penicillin G]
fitness, S. aureus Newman
Settings | first compound 0.0075 µg/mL | first compound 0.015 µg/mL | first compound 0.03 µg/mL
partner 0.0195 µg/mL | 0.722 | 0.625 | 0.081
partner 0.039 µg/mL | 0.706 | – | 0.059
partner 0.078 µg/mL | 0.721 | 0.596 | 0.0633

C/C(=C\C(=O)OCCCCCCCCC(=O)O)C[C@@H]1OC[C@H](C[C@@H]2O[C@H]2[C@@H](C)[C@H](C)O)[C@@H](O)[C@H]1O [Pseudomonic acid] + CC1(C)S[C@@H]2[C@H](NC(=O)Cc3ccccc3)C(=O)N2[C@H]1C(=O)O [Penicillin G]
fitness, S. aureus Newman, one replicate
Settings | first compound 0.0313 µg/mL | first compound 0.0625 µg/mL | first compound 0.125 µg/mL
partner 0.0195 µg/mL | 0.0428 | 0.0466 | 0.0353
partner 0.039 µg/mL | 0.0545 | 0.0468 | 0.0403
partner 0.078 µg/mL | 0.069 | 0.0571 | 0.0351

C/C(=C\C(=O)OCCCCCCCCC(=O)O)C[C@@H]1OC[C@H](C[C@@H]2O[C@H]2[C@@H](C)[C@H](C)O)[C@@H](O)[C@H]1O [Pseudomonic acid] + CCN(CC)CCOC(=O)c1ccc(N)cc1 [Procaine]
fitness, S. pneumoniae D39V
Settings | first compound 0.03 µg/mL | first compound 0.06 µg/mL | first compound 0.12 µg/mL
partner 85.5 µg/mL | 0.867 | 0.69 | 0.587
partner 171 µg/mL | 0.92 | 0.762 | 0.581
partner 342 µg/mL | 0.878 | 0.716 | 0.583

fitness, S. aureus Newman, one replicate
Settings | first compound 0.0313 µg/mL | first compound 0.0625 µg/mL | first compound 0.125 µg/mL
partner 85.5 µg/mL | 0.0858 | 0.046 | 0.0525
partner 171 µg/mL | 0.0636 | 0.045 | 0.0572
partner 342 µg/mL | 0.0723 | 0.0522 | 0.0551

C/C(=C\C(=O)OCCCCCCCCC(=O)O)C[C@@H]1OC[C@H](C[C@@H]2O[C@H]2[C@@H](C)[C@H](C)O)[C@@H](O)[C@H]1O [Pseudomonic acid] + COc1c(N2C[C@@H]3CCCN[C@@H]3C2)c(F)cc2c(=O)c(C(=O)O)cn(C3CC3)c12 [Moxifloxacin]
fitness, S. pneumoniae D39V
Settings | partner 0.0037 µg/mL | partner 0.005 µg/mL | partner 0.0075 µg/mL | partner 0.01 µg/mL | partner 0.015 µg/mL | partner 0.02 µg/mL
first compound 0.03 µg/mL | 0.635 | 0.929 | 0.839 | 0.975 | 0.806 | 0.982
first compound 0.06 µg/mL | 0.49 | 0.834 | 0.715 | 0.876 | 0.692 | 0.869
first compound 0.12 µg/mL | 0.357 | 0.609 | 0.534 | 0.662 | 0.539 | 0.671

fitness, S. aureus Newman, one replicate
Settings | first compound 0.0313 µg/mL | first compound 0.0625 µg/mL | first compound 0.125 µg/mL
partner 0.0075 µg/mL | 0.0642 | 0.025 | 0.0349
partner 0.015 µg/mL | 0.0514 | 0.0242 | 0.0408
partner 0.03 µg/mL | 0.0387 | 0.0144 | 0.0169

C/C(=C\C(=O)OCCCCCCCCC(=O)O)C[C@@H]1OC[C@H](C[C@@H]2O[C@H]2[C@@H](C)[C@H](C)O)[C@@H](O)[C@H]1O [Pseudomonic acid] + C[n+]1ccc(-c2cc[n+](C)cc2)cc1 [Paraquat]
fitness, S. pneumoniae D39V
Settings | partner 1.5 µg/mL | partner 3 µg/mL | partner 6 µg/mL
first compound 0.03 µg/mL | 0.988 | 0.919 | 0.931
first compound 0.06 µg/mL | 0.837 | 0.78 | 0.779

fitness, S. aureus Newman, one replicate
Settings | first compound 0.0313 µg/mL | first compound 0.0625 µg/mL | first compound 0.125 µg/mL
partner 1.25 µg/mL | 0.0626 | 0.028 | 0.0553
partner 2.5 µg/mL | 0.0649 | 0.0373 | 0.0338
partner 5 µg/mL | 0.082 | 0.0355 | 0.0668

C/C(=C\C(=O)OCCCCCCCCC(=O)O)C[C@@H]1OC[C@H](C[C@@H]2O[C@H]2[C@@H](C)[C@H](C)O)[C@@H](O)[C@H]1O [Pseudomonic acid] + Cc1onc(-c2ccccc2)c1C(=O)N[C@@H]1C(=O)N2[C@@H]1SC(C)(C)[C@@H]2C(=O)O [Oxacillin]
fitness, S. pneumoniae D39V
Settings | first compound 0.03 µg/mL | first compound 0.06 µg/mL | first compound 0.12 µg/mL
partner 0.01 µg/mL | 0.948 | 0.835 | 0.589
partner 0.02 µg/mL | 0.95 | 0.819 | 0.562
partner 0.04 µg/mL | – | 0.717 | 0.424

fitness, S. aureus Newman, one replicate
Settings | first compound 0.0313 µg/mL | first compound 0.0625 µg/mL | first compound 0.125 µg/mL
partner 0.0156 µg/mL | 0.058 | 0.0445 | 0.0455
partner 0.0312 µg/mL | 0.0524 | 0.0435 | 0.0505
partner 0.0625 µg/mL | 0.0522 | 0.0224 | 0.0295

COc1cc(Cc2cnc(N)nc2N)cc(OC)c1OC [Trimethoprim] + Cn1nnc(-c2ccc(-c3ccc(N4C[C@H](CO)OC4=O)cc3F)cn2)n1 [Tedizolid]
S. aureus DSM 20231, first compound 0.125 µg/mL, one replicate
Settings | fitness
partner 0.0625 µg/mL | 0.846
partner 0.125 µg/mL | 0.575
partner 0.25 µg/mL | 0.289

fitness, S. aureus DSM 20231
Settings | first compound 0.25 µg/mL | first compound 0.5 µg/mL | first compound 1 µg/mL
partner 0.0625 µg/mL | 0.623 | – | 0.0355
partner 0.125 µg/mL | 0.689 | 0.519 | 0.0418
partner 0.25 µg/mL | 0.502 | 0.39 | 0.192
